Test results from US10465171B2, “7β-hydroxysteroid dehydrogenases and their use” (PharmaZell GmbH, priority 2009, dated 2019).
“Also recorded” adds a separate entry of the source.

Tests used:
[1] = target: T1, 7β-HSDH from Collinsella aerofaciens DSM 3979 (Collinsella aerofaciens, UniProt A4ECA9); format: biochemical
[2] = target: 7β-HSDH from Collinsella aerofaciens ATCC 25986 (DSM 3979) (Collinsella aerofaciens, UniProt A4ECA9); test: Photometric identification of 7β-HSDH activity (cell extract of E. coli expressing the candidate); format: biochemical; settings: 0.1 mM test substance, potassium phosphate buffer 50 mM pH 8, in the presence of NADP+ or NADPH
Experimental: The expression was performed in 50 ml of LB medium. For the preparation of preculture, one colony on an LB agar plate was picked and incubated overnight at 37° C. and 160 Rpm in 5 ml of LB medium (contains relevant antibiotics) a. The 50 ml of LB medium (contains relevant antibiotics) was inoculated with 500 pi of preculture. The culture was incubated at 37° C. and 160 Rpm. Up to OD600 ca. 0.8, expression was induced by addition of 0.5 mM IPTG. After 6 hrs or one night, the cells were centrifuged down. The pellets were resuspended in 6 ml of potassium phosphate buffer (50 mM, pH 8, contains 0.1 mM PMSF) and disintegrated with ultrasound. The cell fragments were removed by centrifugation.
For the identification of 7β-HSDH activity the activity was tested by photometric methods. For this, enzyme and 0.1 mM of test substance (UDCA) in potassium phosphate buffer (50 mM, pH 8) were mixed in a 1 ml cuvette. After addition of NADPH(NADH) or NADP^+ (NAD^+), the degradation or formation of NAD(P)H was measured.

[3] = target: T1, 7β-HSDH from Collinsella aerofaciens DSM 3979; test: Preparative biotransformation of 7-keto-LCA by 7β-HSDH with ADH cofactor regeneration, HPLC analysis; format: biochemical; settings: 0.4 g 7-keto-LCA, 100 U 7β-HSDH, 24° C., 24 hours, pH 8
Experimental: The conversion of 7-keto-LCA by 7β-HSDH was performed in order to verify the biochemical function of 7β-HSDH. 0.4 g of 7-keto-LCA were suspended in 10 ml of potassium phosphate buffer (50 mM, pH 8) and the pH was adjusted to pH 8 by addition of 2M sodium hydroxide. 0.2 ml of isopropanol, 100 U of 7β-HSDH and 80 U of alcohol dehydrogenase (ADH-TE) from Thermoanaerobacter ethanolicus (kindly donated by Dr. K. Momoi, ITB University, Stuttgart) and 1 μmol NADP^+ were added. The same buffer was added, so as to obtain a total reaction volume of 20 ml. The reaction mixture was incubated at 24° C. and stirred for 24 hours. During this, NADPH was regenerated by means of ADH via the oxidation of 2-propanol. […]
An HPLC analysis was performed on a column of the Purospher® STAR RP-18 type (Hitbar® RT 125-4 Pre-Packed Column, Purospher® STAR RP-18 endcapped, Merck, Germany), equipped with a precolumn of the LiChroCART® STAR RP18 type (endcapped, Merck, Germany) on an LC20AD HPLC system (Shimadzu, Japan) at a flow rate of 1 ml/min. […] 20 μl sample (1 mg/ml) were analyzed. […]
To confirm the function of the enzyme, a biotransformation of 7-keto-LCA on the […] was performed, wherein the isolated enzyme was used in combination with ADH for the regeneration of NADPH with the use of 2-propanol, as already described. […] CDCA (retention time 19.4 min) was not detected in the reaction mixture.

[4] = tested on: 7β-HSDH enzyme from C. aerofaciens ATCC25986 described by Hirano et al; design: unit not given here; settings: enzyme of Hirano et al; cited from earlier work

Sequence of 7β-HSDH from Collinsella aerofaciens ATCC 25986 (DSM 3979) (A4ECA9 whole entry): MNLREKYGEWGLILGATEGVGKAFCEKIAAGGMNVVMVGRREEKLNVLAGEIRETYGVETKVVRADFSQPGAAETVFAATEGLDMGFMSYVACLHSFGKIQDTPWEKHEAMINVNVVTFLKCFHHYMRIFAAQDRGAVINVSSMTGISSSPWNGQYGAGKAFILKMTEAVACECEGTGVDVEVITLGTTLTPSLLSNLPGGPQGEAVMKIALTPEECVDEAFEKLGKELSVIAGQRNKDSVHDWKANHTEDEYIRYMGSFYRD
T1 sequence (A4ECA9 whole entry): as above

NC(=O)c1ccc[n+]([C@@H]2O[C@H](COP(=O)([O-])OP(=O)(O)OC[C@H]3O[C@@H](n4cnc5c(N)ncnc54)[C@H](O)[C@@H]3O)[C@@H](O)[C@H]2O)c1 [NAD^+]
activity as coenzyme [1]: very low activity | kcat [1]: traces

NADPH
Vmax [1]: 33.44 U/mg protein | kcat [1]: 1033.44 1 μmol/(μmol × min)

C[C@H](CCC(=O)O)[C@H]1CC[C@H]2[C@@H]3C(=O)C[C@@H]4C[C@H](O)CC[C@]4(C)[C@H]3CC[C@]12C [7-keto-LCA, 7-keto-lithocholic acid]
activity [2]: 35 U/ml | conversion to UDCA [3]: 90%

C[C@H](CCC(=O)O)[C@H]1CC[C@H]2[C@@H]3[C@@H](O)C[C@@H]4C[C@H](O)CC[C@]4(C)[C@H]3CC[C@]12C [UDCA, Ursodeoxycholic acid]
activity [2]: 60 U/ml

C[C@H](CCC(=O)O)[C@H]1CC[C@H]2[C@@H]3[C@H](O)C[C@@H]4C[C@H](O)CC[C@]4(C)[C@H]3C[C@H](O)[C@]12C [CA, Cholic acid]
activity [2]: no activity; also recorded: not detectable

C[C@H](CCC(=O)O)[C@H]1CC[C@H]2[C@@H]3C(=O)C[C@@H]4CC(=O)CC[C@]4(C)[C@H]3CC(=O)[C@]12C [DHCA, Dehydrocholic acid]
activity [2]: 119 U/ml

NC(=O)C1=CN([C@@H]2O[C@H](COP(=O)(O)OP(=O)(O)OC[C@H]3O[C@@H](n4cnc5c(N)ncnc54)[C@H](O)[C@@H]3O)[C@@H](O)[C@H]2O)C=CC1 [NADH]
activity as coenzyme [1]: very low activity | kcat [1]: traces

NC(=O)c1ccc[n+]([C@@H]2O[C@H](COP(=O)([O-])OP(=O)(O)OC[C@H]3O[C@@H](n4cnc5c(N)ncnc54)[C@H](OP(=O)(O)O)[C@@H]3O)[C@@H](O)[C@H]2O)c1 [NADP^+]
Vmax [1]: 30.58 U/mg protein | Vmax [4]: 0.2
